Laboratory results: ChEMBL document CHEMBL3045868, “Synthesis and antibacterial activities of para-alkoxy phenyl--ketoaldehyde derivatives” (Med Chem Res, 2013)
In brackets after ≈: the same amount, converted by molar mass.

What was measured:
[1] = test system: Staphylococcus aureus; experiment: Antibacterial activity against Staphylococcus aureus clinical isolate 13 assessed as growth inhibition at pH 9 after 16 to 18 hr by NCCLS agar dilution method; type: functional
[2] = test system: Staphylococcus aureus; experiment: Antibacterial activity against Staphylococcus aureus clinical isolate 8 assessed as growth inhibition at pH 9 after 16 to 18 hr by NCCLS agar dilution method; type: functional
[3] = test system: Staphylococcus aureus; experiment: Antibacterial activity against Staphylococcus aureus clinical isolate 5 assessed as growth inhibition at pH 7 after 16 to 18 hr by NCCLS agar dilution method; type: functional
[4] = test system: Staphylococcus aureus; experiment: Antibacterial activity against Staphylococcus aureus clinical isolate 4 assessed as growth inhibition at pH 7 after 16 to 18 hr by NCCLS agar dilution method; type: functional
[5] = test system: Staphylococcus aureus; experiment: Antibacterial activity against Staphylococcus aureus clinical isolate 1 assessed as growth inhibition at pH 7 after 16 to 18 hr by NCCLS agar dilution method; type: functional
[6] = test system: Staphylococcus aureus; experiment: Bactericidal activity against Staphylococcus aureus clinical isolate 6 after 24 hr; type: functional; settings: isolate 6, 24 h
[7] = test system: Staphylococcus aureus; experiment: Bactericidal activity against Staphylococcus aureus clinical isolate 4 after 24 hr; type: functional; settings: isolate 4, 24 h
[8] = test system: Staphylococcus aureus; experiment: Bactericidal activity against Staphylococcus aureus clinical isolate 2 after 24 hr; type: functional; settings: isolate 2, 24 h
[9] = test system: Staphylococcus aureus; experiment: Bactericidal activity against Staphylococcus aureus clinical isolate 1 after 24 hr; type: functional; settings: isolate 1, 24 h
[10] = test system: Staphylococcus aureus; experiment: Antibacterial activity against Staphylococcus aureus clinical isolate 10 assessed as growth inhibition after 16 to 18 hr by NCCLS agar dilution method; type: functional
[11] = test system: Staphylococcus aureus; experiment: Antibacterial activity against Staphylococcus aureus clinical isolate 23 assessed as growth inhibition at pH 5 after 16 to 18 hr by NCCLS agar dilution method; type: functional
[12] = test system: Staphylococcus aureus; experiment: Antibacterial activity against Staphylococcus aureus clinical isolate 21 assessed as growth inhibition at pH 5 after 16 to 18 hr by NCCLS agar dilution method; type: functional
[13] = test system: Staphylococcus aureus; experiment: Antibacterial activity against Staphylococcus aureus clinical isolate 21 assessed as growth inhibition at pH 7 after 16 to 18 hr by NCCLS agar dilution method; type: functional
[14] = test system: Staphylococcus aureus; experiment: Antibacterial activity against Staphylococcus aureus clinical isolate 18 assessed as growth inhibition at pH 7 after 16 to 18 hr by NCCLS agar dilution method; type: functional
[15] = test system: Staphylococcus aureus; experiment: Antibacterial activity against Staphylococcus aureus clinical isolate 12 assessed as growth inhibition at pH 7 after 16 to 18 hr by NCCLS agar dilution method; type: functional
[16] = test system: Staphylococcus aureus; experiment: Antibacterial activity against Staphylococcus aureus clinical isolate 11 assessed as growth inhibition at pH 5 after 16 to 18 hr by NCCLS agar dilution method; type: functional
[17] = test system: Staphylococcus aureus; experiment: Antibacterial activity against Staphylococcus aureus clinical isolate 8 assessed as growth inhibition at pH 5 after 16 to 18 hr by NCCLS agar dilution method; type: functional
[18] = test system: Staphylococcus aureus; experiment: Antibacterial activity against Staphylococcus aureus clinical isolate assessed as growth inhibition at pH 9 after 16 to 18 hr by NCCLS agar dilution method; type: functional
[19] = test system: Staphylococcus aureus; experiment: Antibacterial activity against Staphylococcus aureus clinical isolate 23 assessed as growth inhibition at pH 9 after 16 to 18 hr by NCCLS agar dilution method; type: functional
[20] = test system: Staphylococcus aureus; experiment: Antibacterial activity against Staphylococcus aureus clinical isolate 22 assessed as growth inhibition at pH 9 after 16 to 18 hr by NCCLS agar dilution method; type: functional
[21] = test system: Staphylococcus aureus; experiment: Antibacterial activity against Staphylococcus aureus clinical isolate 20 assessed as growth inhibition at pH 9 after 16 to 18 hr by NCCLS agar dilution method; type: functional
[22] = test system: Staphylococcus aureus; experiment: Antibacterial activity against Staphylococcus aureus clinical isolate 18 assessed as growth inhibition at pH 9 after 16 to 18 hr by NCCLS agar dilution method; type: functional
[23] = test system: Staphylococcus aureus; experiment: Antibacterial activity against Staphylococcus aureus clinical isolate 17 assessed as growth inhibition at pH 9 after 16 to 18 hr by NCCLS agar dilution method; type: functional
[24] = test system: Staphylococcus aureus; experiment: Antibacterial activity against Staphylococcus aureus clinical isolate 1 assessed as growth inhibition after 16 to 18 hr by NCCLS agar dilution method; type: functional
[25] = test system: Helicobacter pylori; experiment: Antibacterial activity against Helicobacter pylori 06-8 assessed as growth inhibition after 16 to 18 hr NCCLS agar dilution method; type: functional
[26] = test system: Helicobacter pylori; experiment: Antibacterial activity against Helicobacter pylori 06-7 assessed as growth inhibition after 16 to 18 hr NCCLS agar dilution method; type: functional
[27] = test system: Staphylococcus aureus; experiment: Antibacterial activity against Staphylococcus aureus clinical isolate 7 assessed as growth inhibition at pH 9 after 16 to 18 hr by NCCLS agar dilution method; type: functional
[28] = test system: Staphylococcus aureus; experiment: Antibacterial activity against Staphylococcus aureus clinical isolate 3 assessed as growth inhibition at pH 9 after 16 to 18 hr by NCCLS agar dilution method; type: functional
[29] = test system: Staphylococcus aureus; experiment: Antibacterial activity against Staphylococcus aureus clinical isolate 2 assessed as growth inhibition at pH 9 after 16 to 18 hr by NCCLS agar dilution method; type: functional
[30] = test system: Helicobacter pylori; experiment: Antibacterial activity against Helicobacter pylori 05-12 assessed as growth inhibition after 16 to 18 hr NCCLS agar dilution method; type: functional
[31] = test system: Helicobacter pylori; experiment: Antibacterial activity against Helicobacter pylori 05-9 assessed as growth inhibition after 16 to 18 hr NCCLS agar dilution method; type: functional
[32] = test system: Helicobacter pylori; experiment: Antibacterial activity against Helicobacter pylori 05-4 assessed as growth inhibition after 16 to 18 hr NCCLS agar dilution method; type: functional, 05-Apr
[33] = test system: Helicobacter pylori; experiment: Antibacterial activity against Helicobacter pylori ATCC 11637 assessed as growth inhibition after 16 to 18 hr NCCLS agar dilution method; type: functional
[34] = test system: Staphylococcus aureus; experiment: Antibacterial activity against Staphylococcus aureus ATCC 25923 assessed as growth inhibition after 16 to 18 hr by NCCLS agar dilution method; type: functional
[35] = test system: Staphylococcus aureus; experiment: Antibacterial activity against Staphylococcus aureus clinical isolate 18 assessed as growth inhibition at pH 5 after 16 to 18 hr by NCCLS agar dilution method; type: functional
[36] = test system: Staphylococcus aureus; experiment: Antibacterial activity against Staphylococcus aureus clinical isolate 17 assessed as growth inhibition at pH 5 after 16 to 18 hr by NCCLS agar dilution method; type: functional
[37] = Acute toxicity in KM Mus musculus (mouse) administered through intragastrically measured for 1 week; type: organism-based; settings: in vivo, po
[38] = test system: Staphylococcus aureus; experiment: Antibacterial activity against Staphylococcus aureus clinical isolate 15 assessed as growth inhibition at pH 5 after 16 to 18 hr by NCCLS agar dilution method; type: functional
[39] = test system: Staphylococcus aureus; experiment: Antibacterial activity against Staphylococcus aureus clinical isolate 3 assessed as growth inhibition at pH 5 after 16 to 18 hr by NCCLS agar dilution method; type: functional
[40] = test system: Staphylococcus aureus; experiment: Bactericidal activity against methicillin-resistant Staphylococcus aureus after 24 hr; type: functional
[41] = test system: Staphylococcus aureus; experiment: Bactericidal activity against methicillin-resistant Staphylococcus aureus isolate 5 after 24 hr; type: functional; settings: isolate 5, 24 h
[42] = test system: Staphylococcus aureus; experiment: Bactericidal activity against methicillin-resistant Staphylococcus aureus isolate 3 after 24 hr; type: functional; settings: isolate 3, 24 h
[43] = test system: Staphylococcus aureus; experiment: Antibacterial activity against methicillin-resistant Staphylococcus aureus assessed as growth inhibition after 16 to 18 hr by NCCLS agar dilution method; type: functional
[44] = test system: Staphylococcus aureus; experiment: Bactericidal activity against Staphylococcus aureus clinical isolate after 24 hr; type: functional

SMILES: CO/N=C/CC(=O)c1ccc(OC)cc1
- MIC [1]: 8 µg/mL (≈ 38.6 µM)
- MIC [2]: 8 µg/mL (≈ 38.6 µM)
- MIC [3]: 16 µg/mL (≈ 77.2 µM)
- MIC [4]: 16 µg/mL (≈ 77.2 µM)
- MIC [5]: 32 µg/mL (≈ 154 µM)
- MBC [6]: 64 µg/mL (≈ 309 µM)
- MBC [7]: 128 µg/mL (≈ 618 µM)
- MBC [8]: 64 µg/mL (≈ 309 µM)
- MBC [9]: 128 µg/mL (≈ 618 µM)
- MIC [10]: 16 µg/mL (≈ 77.2 µM)
- MIC [11]: 16 µg/mL (≈ 77.2 µM)
- MIC [12]: 32 µg/mL (≈ 154 µM)
- MIC [13]: 16 µg/mL (≈ 77.2 µM)
- MIC [14]: 16 µg/mL (≈ 77.2 µM)
- MIC [15]: 32 µg/mL (≈ 154 µM)
- MIC [16]: 32 µg/mL (≈ 154 µM)
- MIC [17]: 32 µg/mL (≈ 154 µM)
- MIC50 [18]: 8 µg/mL (≈ 38.6 µM)
- MIC90 [18]: 16 µg/mL (≈ 77.2 µM)
- MIC [19]: 8 µg/mL (≈ 38.6 µM)
- MIC [20]: 8 µg/mL (≈ 38.6 µM)
- MIC [21]: 8 µg/mL (≈ 38.6 µM)
- MIC [22]: 16 µg/mL (≈ 77.2 µM)
- MIC [23]: 16 µg/mL (≈ 77.2 µM)
- MIC [24]: 16 µg/mL (≈ 77.2 µM)
- MIC [25]: 32 µg/mL (≈ 154 µM)
- MIC [26]: 32 µg/mL (≈ 154 µM)
- MIC [27]: 8 µg/mL (≈ 38.6 µM)
- MIC [28]: 8 µg/mL (≈ 38.6 µM)
- MIC [29]: 8 µg/mL (≈ 38.6 µM)
- MIC [30]: > 128 µg/mL
- MIC [31]: 64 µg/mL (≈ 309 µM)
- MIC [32]: 16 µg/mL (≈ 77.2 µM)
- MIC [33]: 32 µg/mL (≈ 154 µM)
- MIC [34]: 2 µg/mL (≈ 9.65 µM)
- MIC [35]: 32 µg/mL (≈ 154 µM)
- MIC [36]: 16 µg/mL (≈ 77.2 µM)
- MTD at 168 h [37]: 5000 mg/kg
- MIC [38]: 16 µg/mL (≈ 77.2 µM)
- MIC [39]: 32 µg/mL (≈ 154 µM)
- MBC50 [40]: 256 µg/mL (≈ 1240 µM)
- MBC90 [40]: 256 µg/mL (≈ 1240 µM)
- MBC [41]: 256 µg/mL (≈ 1240 µM)
- MBC [42]: 256 µg/mL (≈ 1240 µM)
- MIC50 [43]: 8 µg/mL (≈ 38.6 µM)
- MIC90 [43]: 8 µg/mL (≈ 38.6 µM)
- MBC50 (60.1); MBC90 (60.2) ([44]; read-out: MIC50): 64 µg/mL (≈ 309 µM)
- MBC50 (60.1); MBC90 (60.2) ([44]; read-out: MIC90): 128 µg/mL (≈ 618 µM)
